We go through 1 compound from patent publication US10265286B2, “Sequelae of cardiopulmonary bypass-induced pulmonary injury” (Vanderbilt University, priority 2016, dated 2019).

The assay relates to human vascular endothelial cells. The assay is described as follows: Nitric oxide production by cultured human vascular endothelial cells (FIG. 23). Format: cell-based. As for the experimental part:
These agents were administered to cultured human vascular endothelial cells stimulated with acetylcholine. Measurement of nitric oxide was through a Seiver's system of nitrate/nitrites.

`N=C(N)NCCC[C@H](N)C(=O)O` [arginine]: the NO production entry (applied directly to endothelial cell, very high concentrations (10 mM)) is reported as “little sign of increased NO production”. The “production of nitric oxide” value (cells stimulated with acetylcholine, nitrate/nitrites by Seiver's system) is given as “no effect on the production of nitric oxide”.
